# Measured values taken from ChEMBL document CHEMBL3407424, “Synthesis and evaluation of new α-methylene-γ-lactone carbamates with NO production inhibitory effects in lipopolysaccharide-induced RAW 264.7 macrophages” (Eur J Med Chem, 2015).
# Tests used:
# RAW264.7 [1] = experiment: Antiinflammatory activity against mouse RAW264.7 cells assessed as inhibition of LPS-induced NO production at 25 uM incubated for 30 mins by microplate reader analysis; assay type: functional; conditions: RAW264.7, 0.5 h
# RAW264.7 [2] = experiment: Antiinflammatory activity against mouse RAW264.7 cells assessed as inhibition of LPS-induced NO production incubated for 30 mins by microplate reader analysis; assay type: functional, cell-based; conditions: RAW264.7, 0.5 h
# [3] = Cytotoxicity against mouse RAW264.7 cells after 18 hrs by MTT assay; assay type: cell-based
Compound,inhibition at 25 µM (RAW264.7 [1]),IC50 (RAW264.7 [2]),CC50 at 18 h [3]
C=C1C(=O)OC[C@@H]1CCOC(=O)Nc1ccc(C)c(C)c1,> 94%,1.45 µM,13.7 µM
N=C(N)NN [PIMAGEDINE],–,7.29 µM,–
C=C1C(=O)OC[C@H]1CCOC(=O)Nc1cccc(Br)c1,> 94%,0.59 µM,21.8 µM
C=C1C(=O)OC[C@@H]1CCOC(=O)Nc1ccc(Br)cc1,> 94%,0.72 µM,19.8 µM
C=C1C(=O)OC[C@@H]1CCOC(=O)Nc1ccc(CCCC)cc1,> 94%,1.23 µM,9.95 µM
C=C1C(=O)OC[C@H]1CCOC(=O)Nc1cc(C)cc(C)c1,> 94%,0.48 µM,12.7 µM
C=C1C(=O)OC[C@@H]1CCOC(=O)Nc1ccc(C(=O)OCCCC)cc1,> 94%,0.86 µM,12.7 µM
C=C1C(=O)OC[C@H]1CCOC(=O)Nc1cc(C(F)(F)F)cc(C(F)(F)F)c1,> 94%,0.96 µM,13.9 µM
C=C1C(=O)OC[C@@H]1CCOC(=O)Nc1cccc(Br)c1,> 94%,0.84 µM,17.7 µM
C=C1C(=O)OC[C@H]1CCOC(=O)Nc1c(C)cccc1C(C)C,80.7%,1.94 µM,22.2 µM
C=C1C(=O)OC[C@H]1CCOC(=O)Nc1ccc(CC)cc1,> 94%,0.84 µM,11.3 µM
C=C1C(=O)OC[C@H]1CCOC(=O)Nc1ccccc1,> 94%,0.39 µM,14.8 µM
C=C1C(=O)OC[C@H]1CCOC(=O)Nc1ccc(C(C)C)cc1,> 94%,0.34 µM,12.4 µM
C=C1C(=O)OC[C@H]1CCOC(=O)Nc1ccc(Br)cc1,> 94%,0.35 µM,8.47 µM
C=C1C(=O)OC[C@H]1CCOC(=O)Nc1ccc(C(=O)OCCCC)cc1,> 94%,0.43 µM,8.94 µM
C=C1C(=O)OC[C@H]1CCOC(=O)Nc1ccccc1F,> 94%,0.35 µM,17.4 µM
C=C1C(=O)OC[C@@H]1CCOC(=O)Nc1ccc(I)cc1,> 94%,0.79 µM,12.5 µM

Compound,inhibition at 25 µM (RAW264.7 [1]),IC50 (RAW264.7 [2]),CC50 at 18 h [3]
C=C1C(=O)OC[C@H]1CCOC(=O)Nc1ccc(I)cc1,> 94%,0.49 µM,12.8 µM
C=C1C(=O)OC[C@@H]1CCOC(=O)Nc1ccc(Cl)cc1,> 94%,1.07 µM,10.3 µM
C=C1C(=O)OC[C@H]1CCOC(=O)Nc1ccc(F)cc1F,> 94%,0.33 µM,24.5 µM
C=C1C(=O)OC[C@H]1CCOC(=O)Nc1ccc(CCCC)cc1,> 94%,0.62 µM,15.9 µM
C=C1C(=O)OC[C@H]1CCOC(=O)Nc1ccc(C)c(C)c1,> 94%,1.09 µM,18.2 µM
C=C1C(=O)OC[C@@H]1CCOC(=O)Nc1ccccc1F,> 94%,0.69 µM,24.2 µM
C=C1C(=O)OC[C@H]1CCOC(=O)Nc1ccc(Cl)cc1,> 94%,0.39 µM,9.14 µM
C=C1C(=O)OC[C@@H]1CCOC(=O)Nc1cc(C(F)(F)F)cc(C(F)(F)F)c1,> 94%,0.8 µM,12.4 µM
C=C1C(=O)OC[C@@H]1CCOC(=O)Nc1ccc(OC)cc1,> 94%,1.09 µM,11.9 µM
C=C1C(=O)OC[C@@H]1CCOC(=O)Nc1c(C)cccc1C(C)C,39.5%,5.98 µM,> 50 µM
C=C1C(=O)OC[C@@H]1CCOC(=O)Nc1cc(C)cc(C)c1,> 94%,1.24 µM,13.6 µM
C=C1C(=O)OC[C@@H]1CCOC(=O)Nc1ccccc1,> 94%,0.78 µM,22.3 µM
C=C1C(=O)OC[C@H]1CCOC(=O)Nc1ccc(OC)cc1,> 94%,0.71 µM,12.4 µM
C=C1C(=O)OC[C@@H]1CCOC(=O)Nc1ccc(F)cc1F,> 94%,0.7 µM,14.8 µM
C=C1C(=O)OC[C@@H]1CCOC(=O)Nc1ccc(CC)cc1,> 94%,1.26 µM,7.58 µM
C=C1C(=O)OC[C@@H]1CCOC(=O)Nc1ccc(C(C)C)cc1,> 94%,1.58 µM,15.3 µM
